Data: PubChem BioAssay (NCI)
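Each compound was tested at five concentrations against cells in 96-well plates for 48 hours. GI50: concentration for 50% inhibition of growth. TGI: total growth inhibition.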

Columns and labels:
Test in all cases: DTP human tumour cell line panel, 48 h
[1] = system: 786-0 renal
[2] = system: A498 renal
[3] = system: A549 NSCLC
[4] = system: ACHN renal
[5] = system: BT-549 breast
[6] = system: CAKI-1 renal
[7] = system: CCRF-CEM leukemia
[8] = system: COLO 205 colon
[9] = system: DU-145 prostate
[10] = system: EKVX NSCLC
[11] = system: HCC-2998 colon
[12] = system: HCT-116 colon
[13] = system: HCT-15 colon
[14] = system: HL-60(TB) leukemia
[15] = system: HOP-62 NSCLC
[16] = system: HOP-92 NSCLC
[17] = system: HS 578T breast
[18] = system: HT29 colon
[19] = system: IGROV1 ovarian
[20] = system: K-562 leukemia
[21] = system: KM12 colon
[22] = system: LOX IMVI melanoma
[23] = system: M14 melanoma
[24] = system: MALME-3M melanoma
[25] = system: MCF7 breast
[26] = system: MDA-MB-231 breast
[27] = system: MDA-MB-435
[28] = system: MOLT-4 leukemia
[29] = system: NCI-H226 lung
[30] = system: NCI-H23 lung
[31] = system: NCI-H460 lung
[32] = system: NCI-H522 lung
[33] = system: NCI/ADR-RES ovarian
[34] = system: OVCAR-3 ovarian
[35] = system: OVCAR-4 ovarian
[36] = system: OVCAR-5 ovarian
[37] = system: OVCAR-8 ovarian
[38] = system: PC-3 prostate
[39] = system: RPMI-8226 leukemia
[40] = system: RXF 393 renal
[41] = system: SF-268 CNS
[42] = system: SF-295 CNS
[43] = system: SF-539 CNS
[44] = system: SK-MEL-2 melanoma
[45] = system: SK-MEL-28 melanoma
[46] = system: SK-MEL-5 melanoma
[47] = system: SK-OV-3 ovarian
[48] = system: SN12C renal
[49] = system: SNB-19 CNS
[50] = system: SNB-75 CNS
[51] = system: SR leukemia
[52] = system: SW-620 colon
[53] = system: T-47D breast
[54] = system: TK-10 renal
[55] = system: U251 CNS
[56] = system: UACC-257 melanoma
[57] = system: UACC-62 melanoma
[58] = system: UO-31 renal

For COc1cccc(CC(C)=C(c2ccc(OCCCN(C)C)cc2)c2ccc(OCCCN(C)C)cc2)c1, the GI50 [1] was 416 nM, the TGI [1] was 771 nM and the GI50 [2] was 3190 nM. For the same compound, the TGI [2] was 6370 nM, the GI50 [3] was 557 nM and the TGI [3] was 1440 nM. For the same compound, the GI50 [4] was 501 nM, the TGI [4] was 991 nM and the GI50 [5] was 3090 nM. For the same compound, the TGI [5] was 6420 nM, the GI50 [6] was 683 nM and the TGI [6] was 1950 nM. It also gave a GI50 [7] of 463 nM, a TGI [7] of 1130 nM and a GI50 [8] of 432 nM. For the same compound, the TGI [8] was 868 nM, the GI50 [9] was 694 nM and the TGI [9] was 1820 nM. The GI50 [10] was 1640 nM, the TGI [10] was 5170 nM and the GI50 [11] was 446 nM. For the same compound, the TGI [11] was 906 nM, the GI50 [12] was 447 nM and the TGI [12] was 839 nM. For the same compound, the GI50 [13] was 478 nM, the TGI [13] was 950 nM and the GI50 [14] was 506 nM. For the same compound, the TGI [14] was 1020 nM, the GI50 [15] was 501 nM and the TGI [15] was 1100 nM. For the same compound, the GI50 [16] was 747 nM, the TGI [16] was 3790 nM and the GI50 [17] was 527 nM. It also gave a TGI [17] of 1340 nM, a GI50 [18] of 443 nM and a TGI [18] of 912 nM. The GI50 [19] was 549 nM, the TGI [19] was 1190 nM and the GI50 [20] was 484 nM. For the same compound, the TGI [20] was 1160 nM, the GI50 [21] was 628 nM and the TGI [21] was 1540 nM. For the same compound, the GI50 [22] was 428 nM, the TGI [22] was 807 nM and the GI50 [23] was 461 nM. For the same compound, the TGI [23] was 864 nM, the GI50 [24] was 403 nM and the TGI [24] was 774 nM. For the same compound, the GI50 [25] was 441 nM, the TGI [25] was 859 nM and the GI50 [26] was 457 nM. For the same compound, the TGI [26] was 869 nM, the GI50 [27] was 444 nM and the TGI [27] was 819 nM. The GI50 [28] was 502 nM, the TGI [28] was 1110 nM and the GI50 [29] was 2840 nM. It also gave a TGI [29] of 6950 nM, a GI50 [30] of 2870 nM and a TGI [30] of 6310 nM. For the same compound, the GI50 [31] was 484 nM, the TGI [31] was 940 nM and the GI50 [32] was 452 nM. The TGI [32] was 1000 nM, the GI50 [33] was 548 nM and the TGI [33] was 1280 nM. For the same compound, the GI50 [34] was 545 nM, the TGI [34] was 1200 nM and the GI50 [35] was 575 nM. For the same compound, the TGI [35] was 1410 nM, the GI50 [36] was 707 nM and the TGI [36] was 2060 nM. For the same compound, the GI50 [37] was 645 nM, the TGI [37] was 1800 nM and the GI50 [38] was 693 nM. The TGI [38] was 2460 nM, the GI50 [39] was 550 nM and the TGI [39] was 1290 nM. It also gave a GI50 [40] of 597 nM, a TGI [40] of 2570 nM and a GI50 [41] of 683 nM. The TGI [41] was 2050 nM, the GI50 [42] was 658 nM and the TGI [42] was 1870 nM. For the same compound, the GI50 [43] was 437 nM, the TGI [43] was 801 nM and the GI50 [44] was 601 nM. It also gave a TGI [44] of 1650 nM, a GI50 [45] of 448 nM and a TGI [45] of 822 nM. For the same compound, the GI50 [46] was 570 nM, the TGI [46] was 1310 nM and the GI50 [47] was 4040 nM. For the same compound, the TGI [47] was 7570 nM, the GI50 [48] was 533 nM and the TGI [48] was 1220 nM. The GI50 [49] was 905 nM, the TGI [49] was 3340 nM and the GI50 [50] was 619 nM. The TGI [50] was 1770 nM, the GI50 [51] was 440 nM and the TGI [51] was 1210 nM. The GI50 [52] was 434 nM, the TGI [52] was 867 nM and the GI50 [53] was 437 nM. The TGI [53] was 884 nM, the GI50 [54] was 1350 nM and the TGI [54] was 3010 nM. The GI50 [55] was 479 nM, the TGI [55] was 987 nM and the GI50 [56] was 498 nM. The TGI [56] was 1090 nM, the GI50 [57] was 457 nM and the TGI [57] was 835 nM. It also gave a GI50 [58] of 424 nM and a TGI [58] of 795 nM.
